Data on four compounds can be found in US9682999B2, “Benzofuran compounds for the treatment of hepatitis C virus infections” (Glaxo Group Limited, priority 2011, dated 2017).

For series [1], the system named is sub-genomic HCV NS3-NS5B replicon genotype 1a (Huh-7 cells). In words: Replicon luciferase cell based assay, genotype 1a. To be noted: Hepatitis C virus; Huh-7 genotype 1a luciferase replicon, 48 hours; read-out: EC50 GT 1a. As for the experimental part:
(§1) 150 μL of a 1 mM stock solution in DMSO of each test compound was transferred into in the first column of a 96 well, V-bottom microplate, to give 200 times the top concentration of the required dilution series. Aliquots of 50 μL were added to each well of the remaining rows containing 100 μL of DMSO giving a 1:3 dilution series over ten points. Columns 11 and 12 contained DMSO only for the positive and negative control, respectively. 10 μL of each well were transferred into 90 μL of DMEM medium (Invitrogen #41965-039) supplemented with 5% v/v foetal calf serum, 1% v/v non-essential amino acids solution, 100 units/ml penicillin, 100 μg/ml streptomycin and 2 mM L-glutamine to give 20 times the top concentration of the required dilution series.
(§2) Suspensions were prepared from cultures of Huh-7 cells stably transfected with sub-genomic HCV NS3-NS5B replicons of either genotype 1b (the ET subline described by Pietschmann, T., Lohmann, V., Kaul, A., Krieger, N., Rinck, G., Rutter, G., Strand, D. & Bartenschlager, R., Journal of Virology, 2002, 76, 4008-4021), genotype 1a (subline 1.19 constructed in-house from H77 SG-Neo containing adaptive mutations P1496L and S2204I as described by Blight, K. J., McKeating, J. A., Marcotrigiano, J., and Rice, C. M. Journal of Virology, 2003, 77, 3180-3190), genotype 1b C316N (constructed in-house by site directed mutagenesis of the NS5B gene of the ET subline), or genotype 1a C316Y (constructed in-house by site directed mutagenesis of the NS5B gene of H77 SG-Neo containing adaptive mutations P1496L and S2204I as described by Blight, K. J., McKeating, J. A., Marcotrigiano, J., and Rice, C. M. Journal of Virology, 2003, 77, 3180-3190) linked to a firefly luciferase reporter gene. Monolayers nearing confluency were stripped from growth flasks with versene-trypsin solution and the cells re-suspended in assay medium comprising DMEM. 95 μL of suspension containing either 15,000 cells (genotype 1b luciferase replicon) or 20,000 cells (genotype 1a luciferase replicon) were added to all wells of a 96 well plate (Perkin Elmer, #6005686), except medium controls in column 12 of the assay plate. The cell suspension was dosed with 5 μL of compound solution and the plate was incubated for 48 hours at 37° C. in a 5% CO2 atmosphere.
(§3) For toxicity the cells in one plate were treated with Cell Titer Glo (Promega, #G7573). A solution of Cell Titer Glo was prepared according to the manufacturer's instructions, and 100 μL added to each well. The plate was then read for luminescence on an Envision. For potency a solution of Steady Glo (Promega, #E2550) was prepared according to the manufacturer's instructions and 100 μL added to each well. After a twenty minute incubation the plate was then read for luminescence on an Envision.
(§4) Potency: The luminescence values from all compound-free wells containing cells were averaged to obtain a positive control value. The mean luminescence value from the compound-free wells that had received no cells was used to provide the negative (background) control value. The readings from the wells at each compound concentration were taken and after the subtraction of the mean background from all values, were expressed as a percentage of the positive control signal. The quantifiable and specific reduction of luciferase signal in the presence of a drug is a direct measure of replicon inhibition. BioAssay Enterprise (CamebridgeSoft) with the XC50 module for curve fitting was used to plot the curve of percentage inhibition against compound concentration and derive the 50% inhibitory concentration (EC50) for the compound. EC50 is the effective concentration, that is, the concentration of compound where 50% maximal effect is observed. The EC50 values of two identical plates were averaged. The results are presented in Table 1 as EC50 for genotypes (GT) 1a, 1b, 1b 316N and 1a 316Y.

The test system of series [2] is sub-genomic HCV NS3-NS5B replicon genotype 1b C316N (Huh-7 cells). Nature of the series: Replicon luciferase cell based assay, genotype 1b C316N. The note with it: Hepatitis C virus, Huh-7, 48 h, read-out: EC50 1b 316N. As for the experimental part:
as §1, §2, §3, §4

Series [3] is described as follows: In vivo pharmacokinetic study, rat. To be noted: for DNAUC / T 1/2: Rat; for clearance / Vd / bioavailability: rat, blood; for clearance / Vd: intravenous; for Vd: read-out: Vss; for bioavailability: oral. The procedure: (§5) In vivo pharmacokinetic studies were conducted in mouse, rat, dog, or cynomolgus monkey to determine clearance, oral exposure and bioavailability (% F). Solution doses of the compounds were administered intravenously through catheters or orally by gavage. Blood samples were collected at the following time points (n=2 or 3/route/species): 0.083 (IV only), 0.167 (IV only), 0.25, 0.5, 1, 2, 4, 6, 8, 12, and 24 h. Non-compartmental pharmacokinetic parameters were determined using Phoenix Winnonlin 6.1 (Pharsight, Mountain View, Calif.). Bioavailability of the oral formulation of each compound were calculated as the ratio of the oral dose normalized AUCinf to the intravenous dose normalized AUCinf. Results are expressed in Table 2.

The test system of series [4] is sub-genomic HCV NS3-NS5B replicon genotype 1a C316Y (Huh-7 cells). Nature of the series: Replicon luciferase cell based assay, genotype 1a C316Y. To be noted: Hepatitis C virus, Huh-7, 48 h, read-out: EC50 1a 316Y. As for the experimental part: as §1, §2, §3, §4
The test system of series [5] is sub-genomic HCV NS3-NS5B replicon genotype 1b (Huh-7 cells). In words: Replicon luciferase cell based assay, genotype 1b. The note with it: Hepatitis C virus; Huh-7 genotype 1b luciferase replicon, 48 hours; read-out: EC50 GT1b. The procedure:
as §1, §2, §3, §4

The nature of series [6]: In vivo pharmacokinetic study, mouse. The note with it: for clearance / Vd / bioavailability: blood; for clearance / Vd: intravenous; for Vd: read-out: Vss; for bioavailability: oral. As for the experimental part: as §5
The nature of series [7]: In vivo pharmacokinetic study, dog. To be noted: for DNAUC / T 1/2: Dog; for clearance / Vd / bioavailability: dog, blood; for clearance / Vd: intravenous; for Vd: read-out: Vss; for bioavailability: oral. As for the experimental part:
as §5

Series [8] in a line: In vivo pharmacokinetic study, monkey. Details: species or system cynomolgus monkey. To be noted: for clearance / Vd / bioavailability: cynomolgus monkey; for clearance / Vd: intravenous; for Vd: read-out: Vss; for bioavailability: oral. As for the experimental part: as §5
A short description of series [9]: Hepatocyte incubations, metabolic stability. The class given is in vitro ADME. To be noted: cryopreserved human hepatocytes, 0.25×10^6 cells, up to 120 min, 37 C. Also noted: dose or concentration left out as unconfirmed. The procedure: Hepatocyte incubations were conducted using cryopreserved hepatocytes purchased from CellzDirect (Durham, N.C.). Cryopreserved hepatocytes were removed from liquid nitrogen and thawed according to XenoTech's guidelines listed in “XenoTech Protocol for Thawing Cryopreserved Hepatocytes” using Hepatocyte Isolation Kit K2000 (Dec. 13, 2004). Hepatocytes were diluted to 1 million cells in 1 mL of Williams E media containing 25 mM HEPES buffer and 2 mM Glutamax.
Hepatocyte incubations were carried out in 96-well plates on an Eppendorf shaker at 350 rpm at 37 C. Reaction mixtures consisted of 0.25×10^6 cells and […] test compound (to maintain a 0.05% final DMSO concentration) in a final volume of 0.5 mL. An initial time-point (t0) was collected and subsequent aliquots were collected at 15, 30, 60, 90, and 120 min. Reactions were terminated by transferring […] of the incubation mixture into a 96-well plate containing […] of an organic mixture [acetonitrile and methanol (80:20)] at 4° C. Precipitated protein was removed by centrifugation and the resultant supernatant was transferred to a new 96-well polypropylene plate for LC/MS/MS analysis. Drug-free matrix control and 2 QC standards (phenacetin and propranolol) were included in each experiment and treated in the same manner as test compound.
Metabolic stability expressed as the percentage of parent compound remaining was calculated from the peak area ratio of compound remaining after incubation (tx) compared to the time zero (t0) incubation.
The half-life (t1/2) was calculated using the following equation: […]
Where K is the slope of the ln % remaining vs. time regression. Half-life values were only reported when at least 15% loss of parent compound was observed.

`CNC(=O)c1c(-c2ccc(F)cc2)oc2cc(N(c3cc(Cl)c4c(c3)COB4O)S(C)(=O)=O)c(C3CC3)cc12` [Example 15, 6-(N-(7-chloro-1-hydroxy-1,3-dihydrobenzo[c][1,2]oxaborol-5-yl)methylsulfonamido)-5-cyclopropyl-2-(4-fluorophenyl)-N-methylbenzofuran-3-carboxamide]: the EC50 in series [1] is 0.001 to 0.01 µM; in series [2], 0.001 to 0.01 µM; in [4], 0.011 to 0.2 µM; in [5] it was 0.001 to 0.01 µM. The values for the DNAUC in series [3], in series [6] (Mouse) and in [7] were 1089 ng·h/mL/mg/kg, 14603 ng·h/mL/mg/kg and 11480 ng·h/mL/mg/kg, respectively. Moreover, the “T 1/2” value in series [3] is listed as 2.8 H; in series [6] (Mouse), 8.4 H; in series [7], 6.9 H; in series [8] (Monkey), 3.7 H. The clearance came out at 6.9 mL/min/kg in [3], 0.7 mL/min/kg in [6] (mouse), 1.2 mL/min/kg in series [7] and 5.7 mL/min/kg in [8] (blood). For the same compound, the Vd in series [3] stood at 0.9 L/kg; in [6] (mouse), 0.4 L/kg; in series [7] it was 0.6 L/kg; in series [8] (blood), 1.2 L/kg. The bioavailability stood at 43% in [3], 39% in [6] (mouse) and 82% in [7]. The half-life in series [9] was above 6 h.
In the case of `CNC(=O)c1c(-c2ccc(F)cc2)oc2cc(N(Cc3cc(F)c4c(c3)COB4O)S(C)(=O)=O)c(C3CC3)cc12` [A], in [3], the DNAUC was found to be 541 ng·h/mL/mg/kg, the “T 1/2” value stood at 1.7 H, the clearance was found to be 14.5 mL/min/kg and the Vd came out at 1 L/kg. Further, the bioavailability in series [3] is 47%. Besides, in series [6] (Mouse (avg)), the DNAUC was found to be 9344 ng·h/mL/mg/kg, the “T 1/2” value was 4.3 H, the clearance amounted to 0.9 mL/min/kg and the Vd amounted to 0.3 L/kg. In series [6] (Mouse (avg)), this compound showed a bioavailability of 51%. Also, in series [7], the DNAUC was found to be 1074 ng·h/mL/mg/kg, the “T 1/2” value worked out at 5.1 H, the clearance was determined as 12.4 mL/min/kg and the Vd turned out to be 3.5 L/kg. The bioavailability in [7] came to 71%. Also, in [8] (Monkey), the DNAUC was found to be 33 ng·h/mL/mg/kg and the “T 1/2” value was determined as 2.1 H. Moreover, in [8] (blood), the clearance was determined as 70.1 mL/min/kg, the Vd worked out at 6.3 L/kg and the bioavailability stood at 13%. Moreover, in [9], the half-life was above 6 h.
Regarding `CNC(=O)c1c(-c2ccc(F)cc2)oc2cc(N(Cc3ccc(B(O)O)c(F)c3)S(C)(=O)=O)c(C3CC3)cc12` [D], in [3], the DNAUC was found to be 403 ng·h/mL/mg/kg, the “T 1/2” value was determined as 2.2 H, the clearance worked out at 18.6 mL/min/kg and the Vd worked out at 0.8 L/kg. This compound returned a bioavailability in series [3] of 45%. Further, in series [6] (Mouse (avg)), the DNAUC came to 4108 ng·h/mL/mg/kg, the “T 1/2” value is reported as 5 H, the clearance is 1.4 mL/min/kg and the Vd was determined as 0.6 L/kg. Moreover, in series [6] (Mouse (avg)), the bioavailability stood at 37%. Further, in series [7], the DNAUC came to 1147 ng·h/mL/mg/kg, the “T 1/2” value is 4.5 H, the clearance worked out at 10.8 mL/min/kg and the Vd was determined as 3.6 L/kg. Besides, the bioavailability in series [7] amounted to 70%. In addition, in [8] (Monkey (plasma)), the DNAUC is 101 ng·h/mL/mg/kg, the “T 1/2” value was 1.1 H, the clearance was determined as 48.4 mL/min/kg and the Vd amounted to 1.8 L/kg. The compound further displayed a bioavailability in series [8] (Monkey (plasma)) of 28%. The compound also registered a half-life in [9] of 1.03 h.
Consider `CNC(=O)c1c(-c2ccc(F)cc2)oc2cc(N(Cc3ccc(B(O)O)c(Cl)c3)S(C)(=O)=O)c(C3CC3)cc12` [B], for which, in series [3], the DNAUC was determined as 122 ng·h/mL/mg/kg, the “T 1/2” value stood at 1.1 H, the clearance was 33.1 mL/min/kg and the Vd worked out at 2.5 L/kg. In [3], this compound showed a bioavailability of 23%. The compound further yielded a half-life in series [9] of 0.75 h.
